Experimental data from ChEMBL document CHEMBL4800728, “Data for DCP probe JNJ-54119936” (2021).

Legend:
[1] = target: Nuclear receptor ROR-beta (Homo sapiens) (UniProt Q92753); assay: ThermoFluor Binding Assay (RORB)
[2] = target: Melanocortin receptor 4 (Homo sapiens) (UniProt P32245); assay: MC4 (h) CEREP screen; settings: Compound concentration 10.0 uM
[3] = target: Calcium/calmodulin-dependent protein kinase type II subunit alpha (Homo sapiens) (UniProt Q9UQM7); assay: CaMKIIalpha Invitrogen kinase panel; settings: Compound concentration 10.0 uM
[4] = target: Oxysterols receptor LXR-alpha (Homo sapiens) (UniProt Q13133); assay: LXRalpha Indigo Bioscience nuclear receptor screen; settings: Compound concentration 0.3 uM
Sequence of Oxysterols receptor LXR-alpha (Homo sapiens) (Q13133 whole entry): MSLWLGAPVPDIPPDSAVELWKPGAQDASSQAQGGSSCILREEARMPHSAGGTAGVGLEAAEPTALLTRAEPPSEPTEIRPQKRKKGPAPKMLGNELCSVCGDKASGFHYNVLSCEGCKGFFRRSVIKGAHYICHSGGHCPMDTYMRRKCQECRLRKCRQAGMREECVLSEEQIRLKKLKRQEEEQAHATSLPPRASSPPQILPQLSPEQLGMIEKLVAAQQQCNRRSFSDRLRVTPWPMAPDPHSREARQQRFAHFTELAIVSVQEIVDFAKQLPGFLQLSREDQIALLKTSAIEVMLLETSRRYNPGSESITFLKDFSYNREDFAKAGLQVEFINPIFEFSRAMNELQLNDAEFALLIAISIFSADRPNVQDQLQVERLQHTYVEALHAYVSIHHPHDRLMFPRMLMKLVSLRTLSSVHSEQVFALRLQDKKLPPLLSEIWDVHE

[5] = target: Histamine H1 receptor (Homo sapiens) (UniProt P35367); assay: H1 (h) CEREP screen; settings: Compound concentration 1.0 uM
Sequence of Histamine H1 receptor (Homo sapiens) (P35367 whole entry): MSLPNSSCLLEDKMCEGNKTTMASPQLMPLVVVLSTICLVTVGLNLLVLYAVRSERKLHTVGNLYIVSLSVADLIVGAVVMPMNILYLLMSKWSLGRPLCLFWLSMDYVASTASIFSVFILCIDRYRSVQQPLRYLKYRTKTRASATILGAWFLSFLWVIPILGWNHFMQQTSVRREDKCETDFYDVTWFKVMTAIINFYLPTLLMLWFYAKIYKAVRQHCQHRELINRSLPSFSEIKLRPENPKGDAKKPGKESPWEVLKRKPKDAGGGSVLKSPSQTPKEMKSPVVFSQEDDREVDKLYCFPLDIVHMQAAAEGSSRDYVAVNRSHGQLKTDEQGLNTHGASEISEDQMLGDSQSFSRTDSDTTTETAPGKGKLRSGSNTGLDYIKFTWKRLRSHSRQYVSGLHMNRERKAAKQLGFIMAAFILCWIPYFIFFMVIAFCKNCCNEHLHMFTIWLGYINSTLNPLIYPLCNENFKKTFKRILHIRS

[6] = target: Mitogen-activated protein kinase 3 (Homo sapiens) (UniProt P27361); assay: ERK1 Invitrogen kinase panel; settings: Compound concentration 10.0 uM
Sequence of Mitogen-activated protein kinase 3 (Homo sapiens) (P27361 whole entry): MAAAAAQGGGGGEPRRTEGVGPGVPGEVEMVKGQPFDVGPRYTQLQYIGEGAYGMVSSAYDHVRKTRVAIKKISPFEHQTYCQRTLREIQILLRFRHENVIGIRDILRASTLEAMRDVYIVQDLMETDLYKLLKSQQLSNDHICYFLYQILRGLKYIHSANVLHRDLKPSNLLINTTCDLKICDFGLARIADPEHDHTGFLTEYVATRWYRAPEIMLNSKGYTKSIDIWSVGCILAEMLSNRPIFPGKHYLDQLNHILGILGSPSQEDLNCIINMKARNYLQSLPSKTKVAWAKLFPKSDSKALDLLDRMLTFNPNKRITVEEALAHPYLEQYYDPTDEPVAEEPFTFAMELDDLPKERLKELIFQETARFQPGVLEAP

[7] = target: Bile acid receptor (Homo sapiens, UniProt Q96RI1); assay: (§1) FXR In-house nuclear receptor screen
[8] = target: T1, Bile acid receptor (Homo sapiens) (UniProt Q96RI1); assay: as §1; settings: Compound concentration 3.0 uM
T1 sequence (whole entry): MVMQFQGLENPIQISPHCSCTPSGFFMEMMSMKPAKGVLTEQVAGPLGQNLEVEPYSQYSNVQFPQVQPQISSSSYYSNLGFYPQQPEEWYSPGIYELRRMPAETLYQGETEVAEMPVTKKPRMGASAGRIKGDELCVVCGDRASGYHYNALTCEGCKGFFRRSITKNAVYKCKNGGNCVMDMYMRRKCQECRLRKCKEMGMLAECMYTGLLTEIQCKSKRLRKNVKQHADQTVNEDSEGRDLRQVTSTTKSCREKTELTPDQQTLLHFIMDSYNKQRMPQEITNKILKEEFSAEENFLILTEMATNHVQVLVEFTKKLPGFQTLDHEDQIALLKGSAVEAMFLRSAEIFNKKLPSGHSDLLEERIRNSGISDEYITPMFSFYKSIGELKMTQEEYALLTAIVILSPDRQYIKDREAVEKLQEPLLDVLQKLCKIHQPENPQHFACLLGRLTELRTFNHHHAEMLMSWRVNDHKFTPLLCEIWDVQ

[9] = target: Endothelin-1 receptor (Homo sapiens) (UniProt P25101); assay: ETA (h) CEREP screen; settings: Compound concentration 10.0 uM
Sequence of Endothelin-1 receptor (Homo sapiens) (P25101 whole entry): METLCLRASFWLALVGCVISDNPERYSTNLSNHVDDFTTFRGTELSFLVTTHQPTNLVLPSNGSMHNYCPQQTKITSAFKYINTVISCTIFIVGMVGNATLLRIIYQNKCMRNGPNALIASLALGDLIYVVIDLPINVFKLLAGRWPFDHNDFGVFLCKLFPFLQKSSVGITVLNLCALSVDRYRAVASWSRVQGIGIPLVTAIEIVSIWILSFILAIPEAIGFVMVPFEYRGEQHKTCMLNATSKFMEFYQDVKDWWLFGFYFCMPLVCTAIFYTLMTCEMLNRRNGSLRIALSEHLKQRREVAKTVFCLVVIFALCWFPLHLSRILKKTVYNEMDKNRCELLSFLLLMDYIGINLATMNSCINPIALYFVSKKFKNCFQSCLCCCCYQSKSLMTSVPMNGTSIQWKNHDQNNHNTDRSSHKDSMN

[10] = target: Ephrin type-A receptor 2 (Homo sapiens) (UniProt P29317); assay: EphA2 Invitrogen kinase panel; settings: Compound concentration 10.0 uM
[11] = target: T2, Oxysterols receptor LXR-beta (Homo sapiens) (UniProt P55055); assay: LXRbeta Indigo Bioscience nuclear receptor screen
T2 sequence (whole entry): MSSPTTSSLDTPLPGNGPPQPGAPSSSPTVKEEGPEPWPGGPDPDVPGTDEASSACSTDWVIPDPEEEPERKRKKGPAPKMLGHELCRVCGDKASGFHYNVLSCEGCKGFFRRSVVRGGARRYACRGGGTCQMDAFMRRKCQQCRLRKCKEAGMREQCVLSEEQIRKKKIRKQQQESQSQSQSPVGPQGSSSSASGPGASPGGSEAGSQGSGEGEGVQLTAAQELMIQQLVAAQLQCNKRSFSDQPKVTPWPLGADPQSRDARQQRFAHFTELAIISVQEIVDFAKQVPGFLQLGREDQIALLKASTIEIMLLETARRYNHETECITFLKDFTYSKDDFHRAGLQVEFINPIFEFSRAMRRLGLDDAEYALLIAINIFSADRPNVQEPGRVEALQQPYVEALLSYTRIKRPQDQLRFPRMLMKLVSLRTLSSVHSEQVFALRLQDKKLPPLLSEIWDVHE

[12] = target: voltage-dependent K+ channel (Homo sapiens, UniProt O43525+O43526+O95259+P16389+P17658+P22001+P22459+P22460+P48547+P51787+P56696+Q03721+Q09470+Q12809+Q14003+Q14721+Q16322+Q6PIU1+Q8NCM2+Q8TAE7+Q8TDN1+Q8TDN2+Q92953+Q96KK3+Q96L42+Q96PR1+Q96RP8+Q9BQ31+Q9H252+Q9H3M0+Q9NR82+Q9NS40+Q9NSA2+Q9NZV8+Q9UIX4+Q9UJ96+Q9UK17+Q9ULD8+Q9ULS6+Q9UQ05); assay: K+ channel (Volt-dependent) CEREP screen; format: protein assay; settings: compound concentration 10 uM
[13] = target: T3, Muscarinic acetylcholine receptor M1 (Homo sapiens) (UniProt P11229); settings: Compound concentration 10.0 uM
T3 sequence (whole entry): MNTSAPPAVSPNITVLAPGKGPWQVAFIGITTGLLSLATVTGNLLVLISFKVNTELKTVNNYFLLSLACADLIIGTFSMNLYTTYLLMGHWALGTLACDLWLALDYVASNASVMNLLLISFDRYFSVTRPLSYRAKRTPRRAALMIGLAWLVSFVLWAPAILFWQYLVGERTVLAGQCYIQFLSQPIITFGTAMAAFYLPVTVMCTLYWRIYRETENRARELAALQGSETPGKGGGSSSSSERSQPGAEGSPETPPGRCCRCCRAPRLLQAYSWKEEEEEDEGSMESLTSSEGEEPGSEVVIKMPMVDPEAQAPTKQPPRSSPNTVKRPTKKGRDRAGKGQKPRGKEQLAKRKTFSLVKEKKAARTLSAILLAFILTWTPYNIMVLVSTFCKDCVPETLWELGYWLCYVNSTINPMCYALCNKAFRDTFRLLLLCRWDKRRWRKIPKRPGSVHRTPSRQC

[14] = target: Proto-oncogene tyrosine-protein kinase receptor Ret (Homo sapiens) (UniProt P07949); assay: Ret Invitrogen kinase panel; settings: Compound concentration 10.0 uM
Sequence of Proto-oncogene tyrosine-protein kinase receptor Ret (Homo sapiens) (P07949 whole entry): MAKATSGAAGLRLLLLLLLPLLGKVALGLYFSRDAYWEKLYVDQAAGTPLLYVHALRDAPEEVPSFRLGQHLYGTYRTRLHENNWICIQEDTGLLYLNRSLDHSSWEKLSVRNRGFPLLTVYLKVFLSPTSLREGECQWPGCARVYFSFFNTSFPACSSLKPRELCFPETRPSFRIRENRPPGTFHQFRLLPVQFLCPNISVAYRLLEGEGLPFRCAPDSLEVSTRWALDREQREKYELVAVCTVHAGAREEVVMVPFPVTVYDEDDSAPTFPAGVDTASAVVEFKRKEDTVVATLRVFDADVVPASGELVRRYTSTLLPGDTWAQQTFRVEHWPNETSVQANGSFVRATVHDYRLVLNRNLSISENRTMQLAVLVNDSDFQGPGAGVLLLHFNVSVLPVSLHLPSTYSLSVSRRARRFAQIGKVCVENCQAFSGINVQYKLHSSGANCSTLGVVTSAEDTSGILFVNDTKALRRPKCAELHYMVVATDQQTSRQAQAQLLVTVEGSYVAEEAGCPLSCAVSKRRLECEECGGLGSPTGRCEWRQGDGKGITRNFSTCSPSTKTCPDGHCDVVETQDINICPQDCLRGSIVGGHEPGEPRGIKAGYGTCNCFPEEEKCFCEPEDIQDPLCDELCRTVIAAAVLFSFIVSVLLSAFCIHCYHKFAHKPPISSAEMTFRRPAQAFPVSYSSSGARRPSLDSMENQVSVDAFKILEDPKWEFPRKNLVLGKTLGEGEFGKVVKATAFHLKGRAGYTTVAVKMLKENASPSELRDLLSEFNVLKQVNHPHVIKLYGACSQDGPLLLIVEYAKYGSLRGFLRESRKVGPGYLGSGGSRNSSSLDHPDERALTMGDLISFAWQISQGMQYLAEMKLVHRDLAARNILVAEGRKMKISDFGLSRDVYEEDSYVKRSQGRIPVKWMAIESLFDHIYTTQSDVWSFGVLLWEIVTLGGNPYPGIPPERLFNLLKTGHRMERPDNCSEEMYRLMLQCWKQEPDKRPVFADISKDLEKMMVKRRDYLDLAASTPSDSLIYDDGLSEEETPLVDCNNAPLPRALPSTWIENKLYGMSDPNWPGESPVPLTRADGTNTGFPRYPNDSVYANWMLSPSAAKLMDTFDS

[15] = target: D(3) dopamine receptor (Homo sapiens) (UniProt P35462); settings: Compound concentration 10.0 uM
[16] = target: Mu-type opioid receptor (Homo sapiens) (UniProt P35372); assay: Mu (h) CEREP screen; settings: Compound concentration 10.0 uM
Sequence of Mu-type opioid receptor (Homo sapiens) (P35372 whole entry): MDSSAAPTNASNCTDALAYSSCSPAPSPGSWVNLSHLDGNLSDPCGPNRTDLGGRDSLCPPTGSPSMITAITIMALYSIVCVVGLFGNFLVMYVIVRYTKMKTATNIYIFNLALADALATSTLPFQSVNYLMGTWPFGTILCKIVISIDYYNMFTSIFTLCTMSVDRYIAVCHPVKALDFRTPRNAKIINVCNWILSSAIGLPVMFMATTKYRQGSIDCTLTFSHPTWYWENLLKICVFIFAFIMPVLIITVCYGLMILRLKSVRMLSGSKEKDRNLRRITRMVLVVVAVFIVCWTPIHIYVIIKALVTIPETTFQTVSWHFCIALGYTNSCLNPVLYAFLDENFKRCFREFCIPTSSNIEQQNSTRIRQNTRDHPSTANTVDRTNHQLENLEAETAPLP

[17] = target: T1, Bile acid receptor (Homo sapiens); assay: FXR Indigo Bioscience nuclear receptor screen
[18] = target: 5-hydroxytryptamine receptor 6 (Homo sapiens) (UniProt P50406); settings: Compound concentration 10.0 uM
[19] = target: Sodium-dependent noradrenaline transporter (Homo sapiens) (UniProt P23975); assay: norepinephrine transporter (h) CEREP screen
Sequence of Sodium-dependent noradrenaline transporter (Homo sapiens) (P23975 whole entry): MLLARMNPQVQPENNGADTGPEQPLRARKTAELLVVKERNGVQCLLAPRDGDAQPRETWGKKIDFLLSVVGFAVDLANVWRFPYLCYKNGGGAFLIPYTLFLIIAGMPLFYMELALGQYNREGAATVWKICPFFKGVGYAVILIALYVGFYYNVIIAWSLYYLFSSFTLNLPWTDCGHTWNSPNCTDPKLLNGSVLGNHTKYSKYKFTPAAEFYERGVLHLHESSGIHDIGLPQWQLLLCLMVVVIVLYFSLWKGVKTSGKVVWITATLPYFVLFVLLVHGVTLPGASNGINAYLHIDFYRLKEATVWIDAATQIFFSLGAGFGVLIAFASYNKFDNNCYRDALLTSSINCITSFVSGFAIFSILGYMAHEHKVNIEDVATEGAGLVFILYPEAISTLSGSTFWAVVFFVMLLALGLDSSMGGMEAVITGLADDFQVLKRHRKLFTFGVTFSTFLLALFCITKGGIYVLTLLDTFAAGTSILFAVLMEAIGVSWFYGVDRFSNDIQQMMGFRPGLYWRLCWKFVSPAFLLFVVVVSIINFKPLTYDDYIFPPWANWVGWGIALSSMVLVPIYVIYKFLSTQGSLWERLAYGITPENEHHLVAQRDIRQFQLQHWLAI

[20] = target: Serine/threonine-protein kinase Nek2 (Homo sapiens) (UniProt P51955); assay: NEK2 Invitrogen kinase panel; settings: Compound concentration 10.0 uM
Sequence of Serine/threonine-protein kinase Nek2 (Homo sapiens) (P51955 whole entry): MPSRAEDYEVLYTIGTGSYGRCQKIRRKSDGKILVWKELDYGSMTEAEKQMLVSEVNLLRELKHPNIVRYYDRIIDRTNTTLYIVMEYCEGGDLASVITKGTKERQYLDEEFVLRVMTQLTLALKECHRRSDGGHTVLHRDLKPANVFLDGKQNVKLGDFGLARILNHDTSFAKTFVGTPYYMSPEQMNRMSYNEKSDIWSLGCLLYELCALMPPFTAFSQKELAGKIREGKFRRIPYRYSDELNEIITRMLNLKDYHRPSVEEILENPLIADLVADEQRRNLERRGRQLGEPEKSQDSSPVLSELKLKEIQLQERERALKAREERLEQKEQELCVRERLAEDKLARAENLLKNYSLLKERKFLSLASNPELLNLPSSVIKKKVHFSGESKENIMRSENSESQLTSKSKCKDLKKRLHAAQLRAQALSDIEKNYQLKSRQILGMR

[21] = target: Melatonin receptor type 1A (Homo sapiens) (UniProt P48039); assay: MT1 (ML1A) (h) CEREP screen; settings: Compound concentration 10.0 uM
[22] = target: Histamine H1 receptor (Homo sapiens) (UniProt P35367); settings: Compound concentration 10.0 uM

Sequence of Nuclear receptor ROR-beta (Homo sapiens) (Q92753 whole entry): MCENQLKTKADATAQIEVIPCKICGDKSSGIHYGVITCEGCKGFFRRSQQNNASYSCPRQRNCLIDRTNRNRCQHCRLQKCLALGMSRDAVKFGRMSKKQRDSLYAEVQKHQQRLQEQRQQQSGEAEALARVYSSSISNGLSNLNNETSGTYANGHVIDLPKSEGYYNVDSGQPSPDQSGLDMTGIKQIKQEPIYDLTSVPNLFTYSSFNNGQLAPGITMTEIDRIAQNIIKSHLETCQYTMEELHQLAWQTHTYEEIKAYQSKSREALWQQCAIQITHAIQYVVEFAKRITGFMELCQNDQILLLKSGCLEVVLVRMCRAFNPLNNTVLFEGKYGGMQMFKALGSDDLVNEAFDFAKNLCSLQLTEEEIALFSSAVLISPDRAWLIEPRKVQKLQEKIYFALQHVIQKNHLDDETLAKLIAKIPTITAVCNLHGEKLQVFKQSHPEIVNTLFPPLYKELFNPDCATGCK

In the case of COc1nc2ccc([C@@](O)(c3ccccc3)C3CCN(C(C)=O)CC3)cc2c(Cl)c1Cc1ccc(-n2cccn2)cc1 [JNJ-54119936], the qKD [1] is reported as greater than 75 µM, the inhibition [2] is reported as 14% and the inhibition [3] is reported as 14%. The inhibition [4] was -3.25%, the inhibition [5] was 10% and the inhibition [6] was 10%. For the same compound, the IC50 [7] was 5.8 µM, the inhibition [8] was 33% and the inhibition [9] was 12%. For the same compound, the inhibition [10] was 6%, the inhibition ([11]; Compound concentration 0.3 uM) was 5.39% and the inhibition ([11]; Compound concentration 1.0 uM) was 8.98%. For the same compound, the inhibition ([11]; Compound concentration 3.0 uM) was 11%, the inhibition at 10 µM [12] was 15% (not active) and the inhibition [13] was 5.4%. For the same compound, the inhibition [14] was 3%, the inhibition [15] was -2.36% and the inhibition [16] was 15%. The inhibition ([17]; Compound concentration 0.3 uM) was -8.5%, the inhibition ([17]; Compound concentration 1.0 uM) was 5.23% and the inhibition [18] was 8.8%. The inhibition ([19]; Compound concentration 1.0 uM) was 34%, the inhibition ([19]; Compound concentration 10.0 uM) was 16% and the inhibition [20] was 3%. It also gave an inhibition [21] of 20% and an inhibition [22] of 38%.
